Measurements: article PMC7504092, “Synthesis and Antiplasmodial Evaluation of 4-Carboxamido- and 4-Alkoxy-2-Trichloromethyl Quinazolines” (Molecules, 2020)
Like-named read-outs stand apart in the source and are kept apart here.

Tests used:
[1] = In vitro cytotoxicity evaluation (MTT); format: cell-based; conditions: human
Protocol: Triplicate assays were performed for each sample. Each plate-well was then microscope-examined for possible precipitate formation before the medium was aspirated from the wells. 100 μL of MTT (3-(4,5-dimethyl-2-thiazolyl)-2,5-diphenyl-2H-tetrazolium bromide) solution (0.5 mg/mL in medium without FBS) were then added to each well. […] After this time, the MTT solution was removed and DMSO (100 μL) was added to dissolve the resulting blue formazan crystals. Plates were shaken vigorously (700 rpm) for 10 min. The absorbance was measured at 570 nm with 630 nm as reference wavelength using a BIO-TEK ELx808 Absorbance Microplate Reader (LabX, Midland, ON, Canada). DMSO was used as blank and doxorubicin (purchased from Sigma Aldrich) as positive control. Cell viability was calculated as percentage of control (cells incubated without compound). […] CC50 values represent the mean value calculated from three independent experiments.

K1 P. falciparum strain = experiment: In vitro antiplasmodial evaluation (SYBR Green I fluorescence-based method); format: cell-based; conditions: for SI (selectivity index = CC50/EC50): CC50 HepG2 / EC50 PfK1; for EC50: read-out: PfK1 EC50; for activity against P. falciparum (in words): K1 strain; for IC50: K1, Figures 2 and 3, read-out: IC50 P. falci. K1
Protocol: It was maintained in continuous culture as described previously by Trager and Jensen. […] Parasitemia was maintained daily at between 1 and 3%. The P. falciparum drug susceptibility test was carried out by comparing quantities of DNA in treated and control cultures of parasite in human erythrocytes according to an SYBR Green I fluorescence-based method using a 96-well fluorescence plate reader. […] Duplicate assays were performed for each sample. After incubation, plates were frozen at -20 °C for 24 h. […] Fifteen μL of each sample were transferred to 96-well flat bottom non-sterile black plates (Greiner Bio-one) already containing 15 μL of the SYBR Green I lysis buffer (2X SYBR Green I, 20 mM Tris base pH 7.5, 20 mM EDTA, 0.008% w/v saponin, 0.08% w/v Triton X-100).

[2] = Plasmodium falciparum, K1, 72 h, multi-resistant K1 P. falciparum strain, 72 h incubation
[3] = multi-resistant K1 P. falciparum strain, 72 h incubation

Row | melting point [°C] | EC50 (K1 P. falciparum strain; [2]) [µM] | IC50 (K1 P. falciparum strain; Plasmodium falciparum) [µM] | EC50 (K1 P. falciparum strain; [3]) [µM] | Structure (SMILES) | CC50 at 72 h [1] [µM] | SI (selectivity index = CC50/EC50) (K1 P. falciparum strain) | activity against P. falciparum (in words) (K1 P. falciparum strain) | EC50 (K1 P. falciparum strain; Plasmodium falciparum, K1, 72 h) [µM]
1 | 77 | 4.2 | – | – | ClCCCOc1nc(C(Cl)(Cl)Cl)nc2ccccc12 [Molecule 37, 4-(3-Chloropropoxy)-2-Trichloromethylquinazoline] | 60.4 | 14.4 | – | –
2 | 39 | 3.5 | – | – | CCCOc1nc(C(Cl)(Cl)Cl)nc2ccccc12 [Molecule 28, 4-Propoxy-2-Trichloromethylquinazoline] | 54.8 | 15 | – | –
3 | – | – | > 50 | – | CCN(CC)CCOc1ncnc2ccccc12 [Molecule 49, N,N-Diethyl-2-(Quinazolin-4-yloxy)ethanamine] | – | – | inactive | –
4 | 230 | – | > 50 | – | CCN(CC)CCOc1nc(C)nc2ccccc12 [Molecule 47, N,N-Diethyl-2-[(2-Methylquinazolin-4-yl)oxy]ethanamine] | – | – | inactive | –
5 | – | – | > 50 | – | COc1ccc(C(=O)Nc2nc(C)nc3ccccc23)cc1 [Molecule 45, 4-methoxy-N-(2-Methylquinazolin-4-yl)benzamide] | – | – | inactive | –
6 | 54 | 2.2 | – | – | ClCCOc1nc(C(Cl)(Cl)Cl)nc2ccccc12 [Molecule 36, 4-(2-Chloroethoxy)-2-Trichloromethylquinazoline] | > 62.5 | >28 | – | –
7 | 62 | 3.4 | – | – | C#CCOc1nc(C(Cl)(Cl)Cl)nc2ccccc12 [Molecule 31, 4-(Prop-2-ynyloxy)-2-Trichloromethylquinazoline] | 49.6 | 14.6 | – | –
8 | 96 | > 10 | – | – | C#CC(Oc1nc(C(Cl)(Cl)Cl)nc2ccccc12)C(C)C (stereo not drawn) [Molecule 33, 4-(4-Methylpent-1-yn-3-yloxy)-2-Trichloromethylquinazoline] | 30.6 | <3 | – | –
9 | 73 | 4.7 | – | – | CCOc1nc(C(Cl)(Cl)Cl)nc2ccccc12 [Molecule 27, 4-Ethoxy-2-Trichloromethylquinazoline] | 47.1 | 10 | – | –
10 | – | – | > 50 | – | CCN(CC)CCOc1nc(C(F)(F)F)nc2ccccc12 [Molecule 48, N,N-Diethyl-2-[(2-Trifluoromethylquinazolin-4-yl)oxy]ethan-1-Amine] | – | – | inactive | –
11 | 93 | 10 | – | – | OCCOc1nc(C(Cl)(Cl)Cl)nc2ccccc12 [Molecule 34, 2-(2-Trichloromethylquinazolin-4-yloxy)ethanol] | 7.9 | 0.8 | – | –
12 | 137 | – | 0.9 | – | CCN(CC)CCOc1nc(C(Cl)(Cl)Cl)nc2ccccc12 [Molecule 41, N,N-Diethyl-2-[(2-Trichloromethylquinazolin-4-yl)oxy]ethanamine] | 32.3 | – | – | –
13 | 83 | 7.1 | – | – | COc1nc(C(Cl)(Cl)Cl)nc2ccccc12 [Molecule 26, 4-Methoxy-2-Trichloromethylquinazoline] | 39.3 | 5.5 | – | –
14 | 92 | > 10 | – | – | C#CC(C)Oc1nc(C(Cl)(Cl)Cl)nc2ccccc12 (stereo not drawn) [Molecule 32, 4-(But-3-yn-2-yloxy)-2-Trichloromethylquinazoline] | 45 | <4.5 | – | –
15 | 190 | – | > 50 | – | COc1ccc(C(=O)Nc2nc(C(F)(F)F)nc3ccccc23)cc1 [Molecule 46, 4-methoxy-N-(2-Trifluoromethylquinazolin-4-yl)benzamide] | – | – | inactive | –
16 | – | ≤ 2 | – | 1.3 | ClC(Cl)(Cl)c1nc(OCCN2CCCC2)c2ccccc2n1 [Molecule 44, 4-[2-(Pyrrolidin-1-yl)ethoxy]-2-Trichloromethylquinazoline] | 43.7 | – | – | –
17 | – | 1.4 | – | – | ClC(Cl)(Cl)c1nc(OCCN2CCCCC2)c2ccccc2n1 [Molecule 43, 4-[2-(Piperidin-1-yl)ethoxy]-2-Trichloromethylquinazoline] | 23.4 | 16.5 | – | –

More lines, now with the values behind:

Row | Structure (SMILES) | melting point [°C] | EC50 (K1 P. falciparum strain; [2]) [µM] | IC50 (K1 P. falciparum strain; Plasmodium falciparum) [µM] | EC50 (K1 P. falciparum strain; [3]) [µM] | CC50 at 72 h [1] [µM] | SI (selectivity index = CC50/EC50) (K1 P. falciparum strain) | activity against P. falciparum (in words) (K1 P. falciparum strain) | EC50 (K1 P. falciparum strain; Plasmodium falciparum, K1, 72 h) [µM]
18 | O=C(Nc1nc(C(Cl)(Cl)Cl)nc2ccccc12)c1ccccc1Cl [Molecule 13, 2-Chloro-N-(2-Trichloromethylquinazolin-4-yl)benzamide] | – | 9.04 | – | – | 27.3 | – | – | –
19 | O=C(Nc1nc(C(Cl)(Cl)Cl)nc2ccccc12)c1ccc([N+](=O)[O-])cc1 [Molecule 6, 4-Nitro-N-(2-Trichloromethylquinazolin-4-yl)benzamide] | 214 | 4.18 | – | – | 22.1 | 5.3 | – | –
20 | N#Cc1ccc(C(=O)Nc2nc(C(Cl)(Cl)Cl)nc3ccccc23)cc1 [Molecule 15, 4-Cyano-N-(2-Trichloromethylquinazolin-4-yl)benzamide] | – | 3.5 | – | – | 31.4 | – | – | –
21 | CC(C)(C)C(=O)Nc1nc(C(Cl)(Cl)Cl)nc2ccccc12 [Molecule 23, N-(2-Trichloromethylquinazolin-4-yl)pivalamide] | 157 | 1.8 | – | – | 34.9 | 19.4 | – | –
22 | C[C@H]1c2cccc(O)c2C(=O)C2=C(O)[C@]3(O)C(=O)C(C(N)=O)=C(O)[C@@H](N(C)C)[C@@H]3[C@@H](O)[C@@H]21 [Doxycycline, reference compound] | – | 6 | – | – | 20 | – | – | –
23 | O=C(Nc1nc(C(Cl)(Cl)Cl)nc2ccccc12)c1ccc(F)cc1 [Molecule 9, 4-Fluoro-N-(2-Trichloromethylquinazolin-4-yl)benzamide] | 166 | ≤ 2 | – | 1.34 | 29.4 | – | – | –
24 | COc1ccc(C(=O)Nc2nc(C(Cl)(Cl)Cl)nc3ccccc23)cc1 [Molecule 16, 4-Methoxy-N-(2-Trichloromethylquinazolin-4-yl)benzamide] | – | – | 0.94 | – | 27.7 | – | – | –
25 | O=C(Nc1nc(C(Cl)(Cl)Cl)nc2ccccc12)c1ccc(Br)cc1 [Molecule 14, 4-Bromo-N-(2-Trichloromethylquinazolin-4-yl)benzamide] | – | 1.3 | – | – | 19.5 | – | – | –
26 | O=C(Nc1nc(C(Cl)(Cl)Cl)nc2ccccc12)c1cccnc1 [Molecule 18, N-(2-Trichloromethylquinazolin-4-yl)nicotinamide] | 208 | 3.9 | – | – | 72.9 | 18.7 | – | –
27 | O=C(Nc1nc(C(Cl)(Cl)Cl)nc2ccccc12)c1ccncc1 [Molecule 19, N-(2-Trichloromethylquinazolin-4-yl)isonicotinamide] | 151 | 1.8 | – | – | 22.8 | 12.7 | – | –
28 | O=C(Nc1nc(C(Cl)(Cl)Cl)nc2ccccc12)c1cccc(Cl)c1 [Molecule 12, 3-Chloro-N-(2-Trichloromethylquinazolin-4-yl)benzamide] | – | 1.54 | – | – | 16.4 | – | – | –
29 | O=C(Nc1nc(C(Cl)(Cl)Cl)nc2ccccc12)c1cccc(F)c1 [Molecule 10, 3-Fluoro-N-(2-Trichloromethylquinazolin-4-yl)benzamide] | 152 | 2.86 | – | – | 19.9 | 6.9 | – | –
30 | O=C(Nc1nc(C(Cl)(Cl)Cl)nc2ccccc12)c1cccc([N+](=O)[O-])c1 [Molecule 7, 3-Nitro-N-(2-Trichloromethylquinazolin-4-yl)benzamide] | – | 3.37 | – | – | 24.8 | – | – | –
31 | CCN(CC)CCCC(C)Nc1ccnc2cc(Cl)ccc12 (stereo not drawn) [Chloroquine, reference compound] | – | – | – | – | – | – | – | 0.8
32 | ClCCCCOc1nc(C(Cl)(Cl)Cl)nc2ccccc12 [Molecule 38, 4-(4-Chlorobutoxy)-2-Trichloromethylquinazoline] | – | 4.3 | – | – | 50.5 | 11.7 | – | –
33 | O=C(Nc1nc(C(Cl)(Cl)Cl)nc2ccccc12)c1ccc(Cl)cc1 [Molecule 2, 4-Chloro-N-(2-Trichloromethylquinazolin-4-yl)benzamide] | 199 | – | – | – | 21 | – | – | –
34 | COc1cccc2c1C(=O)c1c(O)c3c(c(O)c1C2=O)C[C@@](O)(C(=O)CO)C[C@@H]3O[C@H]1C[C@H](N)[C@H](O)[C@H](C)O1 [Doxorubicin, reference compound] | – | – | – | – | 0.2 | – | – | –
35 | CCCCOc1nc(C(Cl)(Cl)Cl)nc2ccccc12 [Molecule 29, 4-Butoxy-2-Trichloromethylquinazoline] | – | 5.8 | – | – | 82.4 | 14.2 | – | –
